From patent US20250360145A1, “CSF-1R INHIBITORS AND USES THEREOF” (Myrobalan Therapeutics, Inc., priority 2022, published 2025)

Legend:
[1] = tested on: CSF1R phosphorylation in THP-1 cells; assay: p-CSF1R ELISA assay in THP1 cells; assay type: cell-based; settings: Homo sapiens, THP1 cells pre-treated one hour, stimulated with hCSF1, read-out: THP1 pCSFIR ELISA EC50
[2] = tested on: ERK1/2 phosphorylation in BV2 cells; assay: p-ERK1/2 Western blot assay in BV2 cells; assay type: cell-based, murine; settings: Mus musculus, BV-2, 30 minutes pretreatment, CSF1 100 ng/mL 5 minutes
BV2 cells = assay: BV2 cell proliferation (Cell Titer Glo); assay type: cell-based, murine; settings: Mus musculus, BV-2, CSF1 100 ng/mL, 72 h
[3] = tested on: CSF1R phosphorylation in THP-1 cells; assay: Inhibition of CSF1R phosphorylation in THP-1 monocytes (ELISA, Table D); assay type: cell-based, human; settings: FIG. 6
Procedure: The THP-1 human monocyte-like cell line has intact CSF1R signaling that allows for the probing of the activation status of this pathway when stimulated by recombinant CSF. THP-1 cells were expanded in-vitro and pretreated with CSF1R inhibitors for an hour prior to stimulation with recombinant human M-CSF for 5 minutes. The cells were lysed, and the lysate was probed for activated CSF1R (pCSF1R) using ELISA. Using GraphPad Prism, a four-parameter logistic regression was applied to determine the potency of the CSF1R inhibitors.

[4] = tested on: CSF1R phosphorylation in BV2 cells; assay: p-CSF1R Western blot assay in BV2 cells; assay type: cell-based, murine; settings: Mus musculus, BV-2, 30 minutes pretreatment, CSF1 100 ng/mL 5 minutes
[5] = Plasma protein binding study; assay type: in vitro ADME; settings: mouse plasma, equilibrium dialysis 4 hours; read-out: PPB-mouse (Bound) (%) (converted)
Procedure: On the day of experiment, the plasma was thawed under running cold tap water and centrifuged at 3220×g for 5 min to remove any clots. The pH value was checked and recorded. Only plasma within range of pH 7.0 to pH 8.0 was used. Pretreat the dialysis membrane according to the manufacturer's instructions: the dialysis membrane strips were soaked in ultra pure water at room temperature for approximately 1 hr. After that, each membrane strip that contains 2 membranes was separated and soaked in ethanol:water (20:80 v:v) for approximately 20 min, after which it was ready for use or was stored in the solution at 2-8° C. for up to 1 month. Prior to the experiment, the membrane was rinsed and soaked for 20 min in ultra pure water for use. Working solutions (400 μM) of test compound and control compound were prepared. Aliquots of working solutions (3 μL) were spiked into blank matrix (597 μL) to achieve final concentrations and mixed thoroughly. Aliquots of 50 μL loading matrix containing test compound or control compound in triplicate was transferred to Sample Collection Plate, respectively. The samples were matched with opposite blank buffer to obtain a final volume of 100 μL with a volume ratio of matrix:Dialysis Buffer (1:1, v:v) in each well immediately. The stop solution was added to these T0 samples of test compound and control compound. The plate was sealed and shaked at 800 rpm for 10 min. Then these T0 samples were stored at 2-8° C. pending further process along with other post-dialysis samples. The dialysis instrument was assembled following manufacture's instructions. An aliquot of 100 μL of the loading matrix containing test compound or control compound was transferred to the donor side of each dialysis well in triplicate and 100 μL of the Dialysis Buffer was loaded to the receiver side of the well. Then the plate was rotated at approximately 100 rpm in a humidified incubator with 5% CO2 at 37±1° C. for 4 hours. At the end of the dialysis, aliquots of 50 μL samples from the buffer side and matrix side of the dialysis device were taken into new 96-well plates (Sample Collection Plates). An equal volume of opposite blank matrix (buffer or matrix) in each sample was added to reach a final volume of 100 μL with volume ratio of matrix:Dialysis Buffer at 1:1 (v:v) in each well. All samples were further processed by protein precipitation for LC/MS/MS analysis.

[6] = tested on: microglia (Iba1+ cells) in cortex and hippocampus; assay: In vivo microglial depletion; parameters: species or system C57BL/6 mice; settings: for Mean Cortical Ibal + Cell Density ± SEM (mm^−2) / Mean Hippocampal Ibal + Cell Density ± SEM (mm^−2): oral gavage BID 7 days; for Mean Cortical Ibal + Cell Density ± SEM (mm^−2): cortex; for Mean Hippocampal Ibal + Cell Density ± SEM (mm^−2): hippocampus
Procedure: To measure the in vivo pharmacodynamic effect, we quantified microglial depletion following repeated dosing of our compound in naive animals. Female C57BL/6 mice were given Example 134 (0, 50, 100, or 200 mg/kg/day, respectively) by oral gavage BID for 7 days. Following the final dose, mice were perfused with PBS followed by 4% paraformaldehyde (PFA). Brains were post-fixed overnight in 4% PFA and then transferred to 30% sucrose solution. Sagittal sections were sliced and stained for the microglial marker Iba1 and counterstained for DAPI. Brain sections were then imaged under 20× wide-field imaging, and the microglia density was quantified in the cortex and hippocampus.

COc1ccc(COc2ncc(Cc3ccnc4cc(OC)cnc34)cc2OC)nc1 [Example 16, 3-methoxy-8-((5-methoxy-6-((5-methoxypyridin-2-yl)methoxy)pyridin-3-yl)methyl)-1,5-naphthyridine]
EC50 [1]: 10.8 nM | EC50 [2]: 21.4 nM | EC50 (BV2 cells): 45.4 nM | CSF1R phosphorylation in CSF1R-stimulated THP-1 monocytes [3]: dose-dependent inhibition of CSF1R phosphorylation | EC50 [4]: 47.2 nM | fraction unbound at 4 h, 2 µM [5]: 0.0063

COc1cnc2c(Cc3cnc(OCc4cc5n(n4)CCOC5)c(OC)c3)ccnc2c1 [Example 73, 2-(((3-methoxy-5-((7-methoxy-1,5-naphthyridin-4-yl)methyl)pyridin-2-yl)oxy)methyl)-6,7-dihydro-4H-pyrazolo[5,1-c][1,4]oxazine]
fraction unbound at 4 h, 2 µM [5]: 0.01

COc1ccc(COc2ncc(Cc3ccnc4cc(N5CCN(C)CC5)cnc34)cc2OC)nc1 [Example 116]
fraction unbound at 4 h, 2 µM [5]: 0.042

COc1ccc(COc2ncc(Cc3ccnc4cc(-c5ccn(C)n5)cnc34)cc2OC)nc1 [Example 134, 8-((5-methoxy-6-((5-methoxypyridin-2-yl)methoxy)pyridin-3-yl)methyl)-3-(1-methyl-1H-pyrazol-3-yl)-1,5-naphthyridine]
decrease of microglia density in the cortex compared to vehicle control ([6]; 50 mg/kg): > 22% | Mean Cortical Ibal + Cell Density ± SEM (mm^−2) ([6]; 50 mg/kg): 63.6 ± 8.1 mm^−2 | Mean Hippocampal Ibal + Cell Density ± SEM (mm^−2) ([6]; 50 mg/kg): 73.3 ± 7.8 mm^−2 | decrease of microglia density in the cortex compared to vehicle control ([6]; 100 mg/kg): > 91% | decrease of microglia density in the hippocampus relative to vehicle control ([6]; 100 mg/kg): > 83% | Mean Cortical Ibal + Cell Density ± SEM (mm^−2) ([6]; 100 mg/kg): 6.9 ± 1.2 mm^−2 | Mean Hippocampal Ibal + Cell Density ± SEM (mm^−2) ([6]; 100 mg/kg): 13.6 ± 2.2 mm^−2 | decrease of microglia density in the cortex compared to vehicle control ([6]; 200 mg/kg): > 98% | decrease of microglia density in the hippocampus relative to vehicle control ([6]; 200 mg/kg): > 93% | Mean Cortical Ibal + Cell Density ± SEM (mm^−2) ([6]; 200 mg/kg): 1.5 ± 0.3 mm^−2 | Mean Hippocampal Ibal + Cell Density ± SEM (mm^−2) ([6]; 200 mg/kg): 5.6 ± 0.9 mm^−2 | fraction unbound at 4 h, 2 µM [5]: 0.008

COc1cnc2c(Cc3cnc(OCc4cc5n(n4)C[C@H](OC)C5)c(OC)c3)ccnc2c1 [Example 136, (R)-3-methoxy-8-((5-methoxy-6-((5-methoxy-5,6-dihydro-4H-pyrrolo[1,2-b]pyrazol-2-yl)methoxy)pyridin-3-yl)methyl)-1,5-naphthyridine]
fraction unbound at 4 h, 2 µM [5]: 0.005
